Laboratory results taken from patent publication US10533006B2, “Nitrogen-containing heterocycle and carbocycle derivatives having TrkA inhibitory activity” (Shionogi & Co., Ltd., priority 2016, dated 2020).

Molecular target: T1, human TrkA (Homo sapiens, UniProt P04629)
T1 construct: purchased Lifetechnologies PV3144
Assay: Human TrkA inhibition assay
Type: biochemical
Details: human TrkA phosphorylation inhibition, ATP 500 μmol/L; read-out: IC50_nM
Experimental: Seven point five L per well of human TrkA (PV3144, Lifetechnologies, final concentration: 1 nmol/L) suspended in the assay buffer (100 mmol/L 4-(2-hydroxyethyl)-1-piperazineethanesulfonic acid (HEPES), 10 mmol/L magnesium chloride, 0.003 vol % Brij-35, 0.004 vol % Tween20 and 1 mmol/L dithiothreitol (DTT)) was applied in a 384 well plate and the plate was pre-incubated for 15 min at room temperature with 0.4 μL of each compound (final concentration: 200 μmol/L-0.1 nM) dissolved in DMSO. Then, fluorescent substrate (FL-peptide 27, 760424, PerkinElmer, final concentration: 1.5 μmol/L) and ATP (final concentration 500 μmol/L) dissolved in the assay buffer was added in each well. After the incubation of 120 min at 37° C., fifteen μL of termination buffer (100 mmol/L HEPES, 40 mmol/L ethylenediaminetetraacetic acid (EDTA), 10 mmol/L magnesium chloride, 0.003 vol % Brij-35, 0.004 vol % Tween20, 1 mmol/L DTT and 0.16 vol % Coating Reagent 3) was added in each well to stop the enzyme reaction. Fluorescent intensities (FI) of phosphorylated and non-phosphorylated fluorescent substrates were measured by LabChip EZReader II (Caliper LifeSciences, Inc.), and conversion ratio (CR) was calculated by the following formula-1. The CR in the well applied with DMSO alone was used as a negative control and the CR in the well without applying TrkA was used as a positive control. The inhibitory effect of each compound on TrkA phosphorylation was calculated by the following formula-2. CR (%)=(FI of phosphorylated substrate/(FI of phosphorylated substrate+FI of non-phosphorylated substrate))×100 (Formula-1) Phosphorylation inhibition (%)=(1−(CR with compound treatment−CR of positive control)/(CR of negative control−CR of positive control))×100 (Formula-2)
IC50 values (nmol/L) were determined by the logistic regression using the inhibition data in 10 points of 3-fold dilution series at a compound concentration range of 2 μmol/L to 0.1 nmol/L, or 15 points of 3-fold dilution series at the range of 200 μmol/L to 0.04 nmol/L.

T1 sequence (P04629 33-796): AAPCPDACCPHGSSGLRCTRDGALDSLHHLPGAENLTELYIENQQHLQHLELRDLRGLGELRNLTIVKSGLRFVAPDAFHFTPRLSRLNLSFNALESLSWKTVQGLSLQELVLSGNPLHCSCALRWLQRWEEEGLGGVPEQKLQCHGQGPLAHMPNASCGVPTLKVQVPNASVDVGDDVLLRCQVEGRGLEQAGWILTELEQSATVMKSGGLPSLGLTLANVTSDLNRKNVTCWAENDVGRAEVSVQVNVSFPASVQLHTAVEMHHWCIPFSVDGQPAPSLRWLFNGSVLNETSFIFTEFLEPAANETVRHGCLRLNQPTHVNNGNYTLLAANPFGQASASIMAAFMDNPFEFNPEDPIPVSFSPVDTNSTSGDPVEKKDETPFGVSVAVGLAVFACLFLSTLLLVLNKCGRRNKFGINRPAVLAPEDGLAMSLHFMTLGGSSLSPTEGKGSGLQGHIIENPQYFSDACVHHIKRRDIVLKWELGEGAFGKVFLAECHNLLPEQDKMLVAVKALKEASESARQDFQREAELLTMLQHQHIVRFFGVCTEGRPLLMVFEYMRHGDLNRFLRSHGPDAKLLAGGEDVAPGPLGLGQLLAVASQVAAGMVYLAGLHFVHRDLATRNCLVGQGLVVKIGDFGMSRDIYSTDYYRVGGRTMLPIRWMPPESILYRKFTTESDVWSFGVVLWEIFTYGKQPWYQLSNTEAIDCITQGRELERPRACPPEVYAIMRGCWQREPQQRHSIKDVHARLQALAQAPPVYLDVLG

IC50 [µM] | Structure (SMILES)
< 0.1 | CCNC(=O)c1cc(-c2nn(-c3ccccc3)c(NC(=O)N[C@@H]3CN(CCOC)C[C@H]3c3ccccc3)c2C)cnc1OCF (racemic) [Compound I-132]
< 0.1 | CCNC(=O)c1cc(-c2nn(-c3ccccc3)c(NC(=O)N[C@@H]3CN(CCOC)C[C@H]3c3ccccc3)c2C)cn(CCOC)c1=O (racemic) [Compound I-133]
< 0.1 | CCNC(=O)c1cc(-c2nn(-c3ccccc3)c(NC(=O)N[C@@H]3CN(CCOC)C[C@H]3c3ccccc3)c2C)cnc1OC(F)F (racemic) [Compound I-134]
< 0.1 | COCCN1C[C@@H](NC(=O)Nc2c(C)c(-c3cnc4nccnc4c3)nn2-c2ccccc2)[C@H](c2ccccc2)C1 (racemic) [Compound I-135]
< 0.1 | COCCN1C[C@@H](NC(=O)Nc2c(C)c(-c3cc(C(=O)NC4CCOCC4)c(=O)n(CCOC)c3)nn2-c2ccccc2)[C@H](c2ccccc2)C1 (racemic) [Compound I-136]
< 0.1 | COCCN1C[C@@H](NC(=O)Nc2c(C)c(-c3cnc4cccnc4c3)nn2-c2ccccc2)[C@H](c2ccccc2)C1 (racemic) [Compound I-137]
< 0.1 | COCCN1C[C@@H](NC(=O)Nc2c(C)c(-c3cnc(OC)c(C(=O)NO)c3)nn2-c2ccccc2)[C@H](c2ccccc2)C1 (racemic) [Compound I-138]
< 0.1 | COCCN1C[C@@H](NC(=O)Nc2c(C)c(-c3cc(C(=O)NO)c(=O)n(C)c3)nn2-c2ccccc2)[C@H](c2ccccc2)C1 (racemic) [Compound I-139]
< 0.1 | CCOc1ncc(-c2nn(-c3ccccc3)c(NC(=O)N[C@@H]3CN(CCOC)C[C@H]3c3ccccc3)c2C)cc1C(=O)NC1CCOCC1 (racemic) [Compound I-140]
< 0.1 | COCCOc1ncc(-c2nn(-c3ccccc3)c(NC(=O)N[C@@H]3CN(CCOC)C[C@H]3c3ccccc3)c2C)cc1C(=O)NC1CCOCC1 (racemic) [Compound I-141]
< 0.1 | COCCN1C[C@@H](NC(=O)Nc2c(C)c(-c3cnc(OCC(F)F)c(C(=O)NC4CCOCC4)c3)nn2-c2ccccc2)[C@H](c2ccccc2)C1 (racemic) [Compound I-142]
< 0.1 | COCCN1C[C@@H](NC(=O)Nc2c(C)c(-c3cnc(OCF)c(C(=O)NC4CCOCC4)c3)nn2-c2ccccc2)[C@H](c2ccccc2)C1 (racemic) [Compound I-143]
< 0.1 | COCCN1C[C@@H](NC(=O)Nc2c(C)c(-c3cnc(OC)c(C(=O)NC#N)c3)nn2-c2ccccc2)[C@H](c2ccccc2)C1 (racemic) [Compound I-146]
< 0.1 | COCCN1C[C@@H](NC(=O)Nc2c(C)c(-c3cnc(OC)c(C(=O)NS(C)(=O)=O)c3)nn2-c2ccccc2)[C@H](c2ccccc2)C1 (racemic) [Compound I-147]
< 0.1 | COCCN1C[C@@H](NC(=O)Nc2c(C)c(-c3ccc(C(=O)NO)nc3)nn2-c2ccccc2)[C@H](c2ccccc2)C1 (racemic) [Compound I-150]
< 0.1 | CCOC(=O)NC(=O)c1cc(-c2nn(-c3ccccc3)c(NC(=O)N[C@@H]3CN(CCOC)C[C@H]3c3ccccc3)c2C)cnc1OC (racemic) [Compound I-157]
< 0.1 | COCCN1C[C@@H](NC(=O)Nc2c(C)c(-c3cnc(OC)c(C(=O)NC(=O)N(C)C)c3)nn2-c2ccccc2)[C@H](c2ccccc2)C1 (racemic) [Compound I-158]
< 0.1 | COCCN1C[C@@H](NC(=O)Nc2c(C)c(-c3cnc(OC)c(C(N)=O)c3)nn2-c2ccccc2)[C@H](c2ccccc2)C1 (racemic) [Compound I-161]
< 0.1 | COCCN1C[C@@H](NC(=O)Nc2c(C)c(-c3cnn(C)c3)nn2-c2ccccc2)[C@H](c2ccnc(F)c2F)C1 (racemic) [Compound I-162]

IC50 [µM] | Structure (SMILES)
< 0.1 | COCCN1C[C@@H](NC(=O)Nc2c(C)c(-c3ccc4c(cnn4C)c3)nn2-c2ccccc2)[C@H](c2ccc(F)c(F)c2)C1 [Compound I-6]
< 0.1 | COCC[C@@H]1C[C@@H](NC(=O)Nc2c(C)c(-c3ccc4c(cnn4C)c3)nn2-c2ccccc2)[C@H](c2ccc(F)c(F)c2)N1 [Compound I-8]
< 0.1 | COCC[C@@H]1C[C@@H](NC(=O)Nc2c(C)c(-c3ccc4c(cnn4C)c3)nn2-c2ccccc2)[C@H](c2ccc(F)c(F)c2)N1C [Compound I-9]
< 0.1 | Cc1c(-c2ccc3c(cnn3C)c2)nn(-c2ccccc2)c1NC(=O)N[C@@H]1C[C@@H](CCOC(F)(F)F)C[C@H]1c1ccc(F)c(F)c1 [Compound I-11]
< 0.1 | COCC[C@@H]1C[C@@H](NC(=O)Nc2c(C)c(-c3ccc4c(cnn4C)c3)nn2-c2ccccc2)[C@H](c2ccc(F)c(F)c2)C1 [Compound I-13]
< 0.1 | COCC[C@@H]1C[C@@H](NC(=O)Nc2c(C)c(-c3ccc(O)nc3)nn2-c2ccccc2)[C@H](c2ccc(F)c(F)c2)N1C [Compound I-14]
< 0.1 | CCN1CCC(NC(=O)c2ccc(-c3nn(-c4ccccc4)c(NC(=O)N[C@@H]4C[C@@H](CCOC)N[C@H]4c4ccc(F)c(F)c4)c3C)cc2)CC1 [Compound I-15]
< 0.1 | COCC[C@@H]1C[C@@H](NC(=O)Nc2c(C)c(-c3ccc4c(cnn4C)c3)nn2-c2ccccc2)[C@H](c2ccccc2)C1 [Compound I-21]
< 0.1 | COCC[C@@H]1C[C@@H](NC(=O)Nc2c(C)c(-c3ccc(OCc4ccccc4)nc3)nn2-c2ccccc2)[C@H](c2ccccc2)C1 [Compound I-22]
< 0.1 | COCC[C@@H]1C[C@@H](NC(=O)Nc2c(C)c(-c3ccc(=O)[nH]c3)nn2-c2ccccc2)[C@H](c2ccccc2)C1 [Compound I-23]
< 0.1 | CCN1CCC(NC(=O)c2ccc(-c3nn(-c4ccccc4)c(NC(=O)N[C@@H]4C[C@@H](CCOC)N(C)[C@H]4c4ccc(F)c(F)c4)c3C)cc2)CC1 [Compound I-25]
< 0.1 | COCCN1C[C@@H](NC(=O)Nc2c(C)c(N3CCc4c(cnn4C)C3)nn2-c2ccccc2)[C@H](c2ccccc2)C1 [Compound I-58]
< 0.1 | COCCN1C[C@@H](NC(=O)Nc2c(C)c(N3CCc4nn(C)cc4C3)nn2-c2ccccc2)[C@H](c2ccccc2)C1 [Compound I-59]
< 0.1 | COCCN1C[C@@H](NC(=O)Nc2c(C)c(-c3ccnc(C(=O)N[C@H]4CC[C@H](O)CC4)c3)nn2-c2ccccc2)[C@H](c2ccccc2)C1 [Compound I-74]
< 0.1 | COCCN1C[C@@H](NC(=O)Nc2c(C)c(-c3ccnc(C(=O)NC[C@@H](C)O)c3)nn2-c2ccccc2)[C@H](c2ccccc2)C1 [Compound I-75]
< 0.1 | COCCN1C[C@@H](NC(=O)Nc2c(C)c(-c3cnc(OC)c(C(=O)N[C@@H]4CCCOC4)c3)nn2-c2ccccc2)[C@H](c2ccccc2)C1 [Compound I-78]
< 0.1 | COCCN1C[C@@H](NC(=O)Nc2c(C)c(-c3cnc(OC)c(C(=O)N[C@H]4CCOC4)c3)nn2-c2ccccc2)[C@H](c2ccccc2)C1 [Compound I-80]
< 0.1 | COCCN1C[C@@H](NC(=O)Nc2c(C)c(-c3cnc(OC)c(C(=O)NC[C@@H](C)O)c3)nn2-c2ccccc2)[C@H](c2ccccc2)C1 [Compound I-82]
< 0.1 | COCCN1C[C@@H](NC(=O)Nc2c(C)c(-c3cnc(OC)c(C(=O)N[C@@H]4CCOC4)c3)nn2-c2ccccc2)[C@H](c2ccccc2)C1 [Compound I-84]

Same assay, conditions: human TrkA phosphorylation inhibition, ATP 500 μmol/L; read-out: IC50 value

IC50 [µM] | Structure (SMILES)
0.00081 | CCN1CCC(NC(=O)c2ccc(-c3nn(-c4ccccc4)c(NC(=O)N[C@@H]4C[C@@H](CCOC)C[C@H]4c4ccccc4)c3C)cc2)CC1 [Compound I-24]
